Experimental data taken from patent US7510847B2, “Kidney-specific urate transporter and gene thereof” (Human Cell Systems, Inc., priority 2001, dated 2009).
Values belong to the molecule of their own block, whether it stands above or below them.

Legend:
URAT1 [1] = biological target: T1, URAT1 (Homo sapiens, UniProt Q96S37); test: uric acid uptake by URAT1 oocytes after preincubation with or pre-injection of organic acids (exchange substrate study); assay type: cell-based; parameters: expressed in transfected cells; host or cells: Xenopus laevis oocytes ("platanna") injected with URAT1 cRNA; conditions: for uptake of uric acid after preincubation of oocytes with organic acid: preincubation 1 mM, oocytes injected with URAT1 cRNA, FIG. 6; for uptake of radiolabeled uric acid after precedent injection of organic acid into oocytes: 100 nl of 100 mM injected, compared to water injected, FIG. 7
T1 sequence (Q96S37 1-553): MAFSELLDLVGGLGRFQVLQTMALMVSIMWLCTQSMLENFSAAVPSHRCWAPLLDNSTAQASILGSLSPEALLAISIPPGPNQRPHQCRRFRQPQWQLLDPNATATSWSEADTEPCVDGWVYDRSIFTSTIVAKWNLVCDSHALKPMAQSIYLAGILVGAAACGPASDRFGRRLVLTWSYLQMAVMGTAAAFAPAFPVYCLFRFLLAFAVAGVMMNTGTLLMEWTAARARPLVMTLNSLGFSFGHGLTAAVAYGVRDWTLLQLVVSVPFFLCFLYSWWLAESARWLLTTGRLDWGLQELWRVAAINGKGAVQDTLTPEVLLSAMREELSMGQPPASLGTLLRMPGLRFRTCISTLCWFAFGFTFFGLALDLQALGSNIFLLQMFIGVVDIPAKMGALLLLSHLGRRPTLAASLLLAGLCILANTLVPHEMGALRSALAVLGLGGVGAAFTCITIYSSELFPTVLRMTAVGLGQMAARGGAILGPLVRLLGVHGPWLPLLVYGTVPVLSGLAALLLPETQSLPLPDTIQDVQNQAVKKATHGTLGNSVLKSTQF
Procedure: Therefore, 100 nl of 100 mM non-radiolabeled L-lactic acid was precedently injected in the oocytes, and then the uptake of the radiolabeled uric acid was observed (FIG. 7).

URAT1 [2] = biological target: T1, URAT1; test: inhibition of [14C] uric acid uptake by oocytes injected with URAT1 cRNA
Procedure: In order to further study substrate selectivity of URAT1, in the uptake experiment system of [^14C] uric acid by the oocytes injected with URAT1 cRNA, various substances were added to the system and their effects were examined (inhibitory experiments). […] The uptake of 50 μM [^14C] uric acid was measured under the condition at pH 7.4 in the presence and absence of various compounds (unlabeled) at the concentrations shown in FIG. 8.

URAT1 [3] = biological target: T1, URAT1; test: uptake of radiolabeled substrates by oocytes injected with URAT1 cRNA; assay type: cell-based; parameters: expressed in transfected cells; host or cells: Xenopus laevis oocytes ("platanna") injected with URAT1 cRNA; conditions: oocytes of platanna injected with URAT1 cRNA
Procedure: Michaelis-Menten dynamic experiment in urate transport by URAT1 was carried out. Concentration dependency of uric acid in the transport by URAT1 was studied by examining change of uptake amounts of uric acid at various concentrations by URAT1. The uptake experiment of the radiolabeled uric acid was carried out using oocytes injected with URAT1 cRNA according to the method described above.

[4] = substrate: O=c1[nH]c(=O)c2[nH]c(=O)[nH]c2[nH]1; test: as above; assay type: cell-based, human; conditions: other: oocytes injected with URAT1 cRNA, FIG. 3
[5] = 50 μM [14C] uric acid, pH 7.4, unlabeled compound at concentrations shown in FIG. 8

Molecule: O=C(O)c1cnccn1 [pyrazine carboxylic acid]
uptake of uric acid after preincubation of oocytes with organic acid (URAT1 [1]): significantly increased | inhibition of transport/uptake of [14C] uric acid by URAT1 (URAT1 [2]; [5]): significantly inhibited

Molecule: C[C@H](O)C(=O)O [L-lactic acid]
uptake of radiolabeled uric acid after precedent injection of organic acid into oocytes (URAT1 [1]): significantly high uptake | inhibition of transport/uptake of [14C] uric acid by URAT1 (URAT1 [2]; [5]): significantly inhibited

Molecule: Pyrazine dicarboxylic acid
inhibition of transport/uptake of [14C] uric acid by URAT1 (URAT1 [2]; [5]): slightly weak inhibitory effect

Molecule: C[C@@H](O)C(=O)O [D-lactic acid]
inhibition of transport/uptake of [14C] uric acid by URAT1 (URAT1 [2]; [5]): significantly inhibited

Molecule: CC[N+](CC)(CC)CC [TEA, tetraethylammonium]
uptake of 14C-labeled substrate by oocytes expressing URAT1 (URAT1 [3]): No uptake | inhibition of transport/uptake of [14C] uric acid by URAT1 (URAT1 [2]; [5]): did not show any inhibitory action

Molecule: CC(O)C(=O)O (stereo not shown) [lactic acid]
uptake of uric acid after preincubation of oocytes with organic acid (URAT1 [1]): not facilitated

Molecule: O=c1[nH]c(=O)c2[nH]c(=O)[nH]c2[nH]1 [uric acid]
uptake of 14C-labeled substrate by oocytes expressing URAT1 (URAT1 [3]): showed uptake

B1: URAT1 (Homo sapiens) (protein)
chain: MAFSELLDLVGGLGRFQVLQTMALMVSIMWLCTQSMLENFSAAVPSHRCWAPLLDNSTAQASILGSLSPEALLAISIPPGPNQRPHQCRRFRQPQWQLLDPNATATSWSEADTEPCVDGWVYDRSIFTSTIVAKWNLVCDSHALKPMAQSIYLAGILVGAAACGPASDRFGRRLVLTWSYLQMAVMGTAAAFAPAFPVYCLFRFLLAFAVAGVMMNTGTLLMEWTAARARPLVMTLNSLGFSFGHGLTAAVAYGVRDWTLLQLVVSVPFFLCFLYSWWLAESARWLLTTGRLDWGLQELWRVAAINGKGAVQDTLTPEVLLSAMREELSMGQPPASLGTLLRMPGLRFRTCISTLCWFAFGFTFFGLALDLQALGSNIFLLQMFIGVVDIPAKMGALLLLSHLGRRPTLAASLLLAGLCILANTLVPHEMGALRSALAVLGLGGVGAAFTCITIYSSELFPTVLRMTAVGLGQMAARGGAILGPLVRLLGVHGPWLPLLVYGTVPVLSGLAALLLPETQSLPLPDTIQDVQNQAVKKATHGTLGNSVLKSTQF
notes: expressed in transfected cells; host or cells: Xenopus laevis oocytes ("platanna") injected with URAT1 cRNA
Km [4]: 372 ± 25 µM

Next, values leading:

uptake of uric acid after preincubation of oocytes with organic acid (URAT1 [1]): significantly increased | inhibition of transport/uptake of [14C] uric acid by URAT1 (URAT1 [2]; [5]): significantly inhibited
Molecule: O=C(O)c1cccnc1 [nicotinic acid, 3-pyridine carboxylic acid]

IC50 (URAT1 [2]): ~20 µM | inhibition of transport/uptake of [14C] uric acid by URAT1 (URAT1 [2]; [5]): significantly inhibited
Molecule: CCCCc1nc(Cl)c(CO)n1Cc1ccc(-c2ccccc2-c2nn[nH]n2)cc1 [Losartan]

inhibition of transport/uptake of [14C] uric acid by URAT1 (URAT1 [2]; [5]): significantly inhibited
Molecule: CCCN(CCC)S(=O)(=O)c1ccc(C(=O)O)cc1 [probenecid]

inhibition of transport/uptake of [14C] uric acid by URAT1 (URAT1 [2]; [5]): significantly inhibited
Molecule: O=C1C(CC[S+]([O-])c2ccccc2)C(=O)N(c2ccccc2)N1c1ccccc1 (stereo not shown) [sulfinpyrazon]

inhibition of transport/uptake of [14C] uric acid by URAT1 (URAT1 [2]; pH 7.4): significantly inhibited
Molecule: CCc1oc2ccccc2c1C(=O)c1cc(Br)c(O)c(Br)c1 [benz-bromarone]

uptake of 14C-labeled substrate by oocytes expressing URAT1 (URAT1 [3]): No uptake | uptake of radiolabeled uric acid after precedent injection of organic acid into oocytes (URAT1 [1]): no change | uptake of uric acid after preincubation of oocytes with organic acid (URAT1 [1]): not facilitated | inhibition of transport/uptake of [14C] uric acid by URAT1 (URAT1 [2]; [5]): did not show any inhibitory action
Molecule: Nc1ccc(C(=O)NCC(=O)O)cc1 [PAH, para-amino hippuric acid]
